Reference: the NIST ThermoML archive (doi:10.1016/j.tca.2013.08.031)

Test: molar heat capacity at constant volume
Settings: Fluid (supercritical or subcritical phases), Vacuum adiabatic calorimetry

CCC(C)O (stereo unspecified) [butan-2-ol]
Settings	molar heat capacity at constant volume [J/K/mol]
462.76 K, Mass density=598.18 kg/m3	276.1
462.95 K, Mass density=598.18 kg/m3	279.07
463.15 K, Mass density=598.18 kg/m3	277.81
463.35 K, Mass density=598.18 kg/m3	282.48
463.45 K, Mass density=598.18 kg/m3	292.34
463.74 K, Mass density=598.18 kg/m3	258.76
463.93 K, Mass density=598.18 kg/m3	219.18
464.13 K, Mass density=598.18 kg/m3	217.62
464.33 K, Mass density=598.18 kg/m3	217.32
464.53 K, Mass density=598.18 kg/m3	218.88
464.72 K, Mass density=598.18 kg/m3	216.73
464.92 K, Mass density=598.18 kg/m3	217.62
465.11 K, Mass density=598.18 kg/m3	217.55
465.31 K, Mass density=598.18 kg/m3	218.07
467.66 K, Mass density=598.18 kg/m3	219.18
467.86 K, Mass density=598.18 kg/m3	218.88
468.05 K, Mass density=598.18 kg/m3	218.44
468.25 K, Mass density=598.18 kg/m3	219.84
468.45 K, Mass density=598.18 kg/m3	219.92
469.23 K, Mass density=598.18 kg/m3	222.44
469.42 K, Mass density=598.18 kg/m3	222.36
481.46 K, Mass density=538.17 kg/m3	279.66
481.66 K, Mass density=538.17 kg/m3	284.78
481.85 K, Mass density=538.17 kg/m3	283.59
482.04 K, Mass density=538.17 kg/m3	284.55
482.24 K, Mass density=538.17 kg/m3	286.41
482.43 K, Mass density=538.17 kg/m3	287.44
482.62 K, Mass density=538.17 kg/m3	289.22
482.81 K, Mass density=538.17 kg/m3	288.41
483.01 K, Mass density=538.17 kg/m3	289
483.2 K, Mass density=538.17 kg/m3	291.15
483.39 K, Mass density=538.17 kg/m3	289.82
483.58 K, Mass density=538.17 kg/m3	289.59
483.78 K, Mass density=538.17 kg/m3	289.59
487.62 K, Mass density=538.17 kg/m3	282.7
487.81 K, Mass density=538.17 kg/m3	280.25
488 K, Mass density=538.17 kg/m3	282.4
488.19 K, Mass density=538.17 kg/m3	287.74
488.39 K, Mass density=538.17 kg/m3	290.63
489.53 K, Mass density=538.17 kg/m3	283.44
489.73 K, Mass density=538.17 kg/m3	289.07
489.92 K, Mass density=538.17 kg/m3	294.19
490.11 K, Mass density=538.17 kg/m3	289.3
490.87 K, Mass density=538.17 kg/m3	282.03
491.06 K, Mass density=538.17 kg/m3	283.07
491.45 K, Mass density=538.17 kg/m3	285.52
491.64 K, Mass density=538.17 kg/m3	290.85
491.83 K, Mass density=538.17 kg/m3	286.92
492.02 K, Mass density=538.17 kg/m3	283.07
492.21 K, Mass density=538.17 kg/m3	281.44
492.4 K, Mass density=538.17 kg/m3	282.18
492.59 K, Mass density=538.17 kg/m3	258.31
492.78 K, Mass density=538.17 kg/m3	240.45
492.97 K, Mass density=538.17 kg/m3	211.02
493.16 K, Mass density=538.17 kg/m3	211.77
493.36 K, Mass density=538.17 kg/m3	215.03
493.55 K, Mass density=474.07 kg/m3	293.52
493.55 K, Mass density=538.17 kg/m3	215.03
493.74 K, Mass density=474.07 kg/m3	285.37
493.93 K, Mass density=474.07 kg/m3	291.3
494.12 K, Mass density=474.07 kg/m3	294.26
494.31 K, Mass density=474.07 kg/m3	297.97
494.5 K, Mass density=474.07 kg/m3	291.3
494.69 K, Mass density=474.07 kg/m3	288.33
494.88 K, Mass density=474.07 kg/m3	272.77
495.07 K, Mass density=474.07 kg/m3	277.21
495.26 K, Mass density=474.07 kg/m3	272.77
495.45 K, Mass density=474.07 kg/m3	279.44
501.71 K, Mass density=76.44 kg/m3	522.04
501.9 K, Mass density=76.44 kg/m3	509.29
502.09 K, Mass density=76.44 kg/m3	497.21
502.28 K, Mass density=76.44 kg/m3	502.03
502.46 K, Mass density=76.44 kg/m3	499.06
502.65 K, Mass density=76.44 kg/m3	495.28
502.84 K, Mass density=76.44 kg/m3	491.43
503.03 K, Mass density=76.44 kg/m3	490.83
503.22 K, Mass density=76.44 kg/m3	487.05
503.41 K, Mass density=76.44 kg/m3	488.98
503.6 K, Mass density=76.44 kg/m3	491.8
503.97 K, Mass density=76.44 kg/m3	497.73
504.16 K, Mass density=76.44 kg/m3	500.54
504.35 K, Mass density=76.44 kg/m3	512.25
504.54 K, Mass density=76.44 kg/m3	524.04
504.73 K, Mass density=76.44 kg/m3	551.69
504.92 K, Mass density=76.44 kg/m3	530.27
505.11 K, Mass density=76.44 kg/m3	521.82
505.29 K, Mass density=76.44 kg/m3	499.58
505.48 K, Mass density=76.44 kg/m3	412.34
505.67 K, Mass density=76.44 kg/m3	315.91
505.86 K, Mass density=76.44 kg/m3	251.94
506.05 K, Mass density=76.44 kg/m3	248.83
510.37 K, Mass density=474.07 kg/m3	291.3
510.55 K, Mass density=474.07 kg/m3	290.56
510.74 K, Mass density=474.07 kg/m3	293.52
510.93 K, Mass density=474.07 kg/m3	293.52
511.49 K, Mass density=474.07 kg/m3	292.04
511.68 K, Mass density=474.07 kg/m3	295
511.87 K, Mass density=474.07 kg/m3	292.78
512.43 K, Mass density=474.07 kg/m3	296.49
512.61 K, Mass density=474.07 kg/m3	295.75
512.8 K, Mass density=474.07 kg/m3	295.75
513.18 K, Mass density=95.93 kg/m3	639
513.36 K, Mass density=95.93 kg/m3	647.6
513.36 K, Mass density=474.07 kg/m3	281.66
513.55 K, Mass density=95.93 kg/m3	645.08
513.55 K, Mass density=474.07 kg/m3	293.52
513.74 K, Mass density=95.93 kg/m3	641.3
513.74 K, Mass density=474.07 kg/m3	293.52
513.92 K, Mass density=95.93 kg/m3	638.11
513.92 K, Mass density=474.07 kg/m3	295
514.11 K, Mass density=95.93 kg/m3	635.74
514.11 K, Mass density=474.07 kg/m3	289.82
514.3 K, Mass density=95.93 kg/m3	627.59
514.3 K, Mass density=474.07 kg/m3	283.14
514.48 K, Mass density=95.93 kg/m3	308.72
514.48 K, Mass density=474.07 kg/m3	295.75
514.67 K, Mass density=95.93 kg/m3	252.53
514.67 K, Mass density=474.07 kg/m3	285.37
514.86 K, Mass density=95.93 kg/m3	246.31
514.86 K, Mass density=474.07 kg/m3	291.3
515.04 K, Mass density=95.93 kg/m3	265.58
515.04 K, Mass density=474.07 kg/m3	286.85
515.23 K, Mass density=95.93 kg/m3	271.43
515.23 K, Mass density=474.07 kg/m3	240.9
515.42 K, Mass density=95.93 kg/m3	276.47
515.42 K, Mass density=474.07 kg/m3	230.52
515.6 K, Mass density=474.07 kg/m3	230.52
515.79 K, Mass density=95.93 kg/m3	198.72
515.79 K, Mass density=474.07 kg/m3	229.04
515.98 K, Mass density=95.93 kg/m3	206.28
515.98 K, Mass density=474.07 kg/m3	232.74
516.16 K, Mass density=95.93 kg/m3	200.65
516.35 K, Mass density=95.93 kg/m3	215.69
516.53 K, Mass density=95.93 kg/m3	229.41
516.53 K, Mass density=403.55 kg/m3	311.31
516.53 K, Mass density=474.07 kg/m3	220.14
516.72 K, Mass density=95.93 kg/m3	228.07
516.72 K, Mass density=403.55 kg/m3	309.83
516.72 K, Mass density=474.07 kg/m3	223.11
516.91 K, Mass density=95.93 kg/m3	243.71
516.91 K, Mass density=403.55 kg/m3	312.79
516.91 K, Mass density=474.07 kg/m3	221.62
516.91 K, Mass density=538.17 kg/m3	212.88
517.09 K, Mass density=95.93 kg/m3	203.61
517.09 K, Mass density=403.55 kg/m3	309.09
517.09 K, Mass density=474.07 kg/m3	222.36
517.09 K, Mass density=538.17 kg/m3	213.84
517.28 K, Mass density=95.93 kg/m3	224.96
517.28 K, Mass density=403.55 kg/m3	310.57
517.28 K, Mass density=538.17 kg/m3	214.06
517.47 K, Mass density=403.55 kg/m3	313.53
517.65 K, Mass density=403.55 kg/m3	309.09
520.44 K, Mass density=117 kg/m3	740.77
520.63 K, Mass density=117 kg/m3	732.54
520.81 K, Mass density=117 kg/m3	737.95
521 K, Mass density=117 kg/m3	726.1
521.18 K, Mass density=117 kg/m3	734.77
521.37 K, Mass density=117 kg/m3	723.58
521.55 K, Mass density=117 kg/m3	728.69
521.74 K, Mass density=117 kg/m3	715.2
521.74 K, Mass density=142.27 kg/m3	509.66
521.92 K, Mass density=117 kg/m3	709.42
521.92 K, Mass density=142.27 kg/m3	517.74
522.11 K, Mass density=117 kg/m3	639
522.11 K, Mass density=142.27 kg/m3	522.71
522.13 K, Mass density=117 kg/m3	606.09
522.15 K, Mass density=117 kg/m3	603.42
522.16 K, Mass density=117 kg/m3	599.35
522.18 K, Mass density=117 kg/m3	590.9
522.2 K, Mass density=117 kg/m3	590.9
522.22 K, Mass density=117 kg/m3	505.14
522.24 K, Mass density=117 kg/m3	408.41
522.26 K, Mass density=117 kg/m3	318.13
522.28 K, Mass density=117 kg/m3	304.49
522.3 K, Mass density=117 kg/m3	309.61
522.3 K, Mass density=142.27 kg/m3	521.45
522.31 K, Mass density=117 kg/m3	308.86
522.33 K, Mass density=117 kg/m3	298.12
522.35 K, Mass density=117 kg/m3	289.44
522.37 K, Mass density=117 kg/m3	280.77
522.39 K, Mass density=117 kg/m3	260.54
522.4 K, Mass density=117 kg/m3	247.05
522.42 K, Mass density=117 kg/m3	241.56
522.44 K, Mass density=117 kg/m3	241.56
522.46 K, Mass density=117 kg/m3	222.29
522.48 K, Mass density=117 kg/m3	221.62
522.48 K, Mass density=142.27 kg/m3	530.71
522.67 K, Mass density=117 kg/m3	241.78
522.67 K, Mass density=142.27 kg/m3	535.45
522.85 K, Mass density=117 kg/m3	245.27
522.85 K, Mass density=142.27 kg/m3	540.12
523.04 K, Mass density=117 kg/m3	242.75
523.04 K, Mass density=142.27 kg/m3	544.87
523.22 K, Mass density=117 kg/m3	224.14
523.22 K, Mass density=142.27 kg/m3	528.41
523.41 K, Mass density=117 kg/m3	213.62
523.41 K, Mass density=142.27 kg/m3	530.64
523.59 K, Mass density=142.27 kg/m3	531.67
523.78 K, Mass density=142.27 kg/m3	532.34
524.33 K, Mass density=142.27 kg/m3	531.23
524.52 K, Mass density=142.27 kg/m3	529.97
524.7 K, Mass density=142.27 kg/m3	534.05
524.89 K, Mass density=142.27 kg/m3	531.45
525.07 K, Mass density=142.27 kg/m3	529.6
525.26 K, Mass density=142.27 kg/m3	530.41
525.44 K, Mass density=142.27 kg/m3	530.93
525.63 K, Mass density=142.27 kg/m3	531.82
525.81 K, Mass density=142.27 kg/m3	537.01
525.99 K, Mass density=142.27 kg/m3	538.94
527.1 K, Mass density=142.27 kg/m3	532.93
527.29 K, Mass density=142.27 kg/m3	536.64
